Laboratory results as given in article PMC11436758, “Computer-aided drug design to generate a unique antibiotic family” (Nature Communications, 2024).
In brackets after ≈: the same amount, converted by molar mass.

Assays:
Format in all cases: cell-based
[1] = system: P. aeruginosa ATCC 27853; experiment: MIC alone and MIC of colistin in combination with DNM compounds; settings: compound alone, bracket after colistin value is a range (0.25-4)
Protocol: (§1) The medium employed for the assay was Mueller Hinton II Broth (MHB II; Becton-Dickinson, Sparks, MD, USA). Agar plates used for the organisms were trypticase soy agar plus 5% sheep blood (BD; Sparks, MD, USA). MIC assay plates were prepared using the CLSI broth microdilution procedure. Automated liquid handlers (Multidrop 384, Biomek 2000 and Biomek FX) were used to conduct serial dilutions and liquid transfers. A standardized inoculum of each organism was prepared per CLSI methods. Suspensions were prepared to equal a 0.5 McFarland standard, followed by a 1:20 dilution in test media. The inocula were dispensed into sterile reservoirs divided by length (Beckman Colter) and the Biomek 2000 was used to inoculate the plates. Daughter plates were placed on the Biomek 2000 work surface in reverse orientation so that inoculation took place from low to high drug concentration. The Biomek 2000 delivered 10 μL of the diluted suspension into each well. These inoculations yielded a final cell concentration in the daughter plates of ~5 × 10^5 colony-forming units/mL in each well. The wells of the daughter plates ultimately contained 185 μL of broth, 5 μL of drug solution, and 10 μL of bacterial inoculum. Plates were covered with a sterile lid on the top plate, placed in plastic bags, and incubated at 35 °C for ~18 h. The microplates were viewed from the bottom using a plate viewer and the MIC was read. The MIC was recorded as the lowest concentration of drug that inhibited visible growth of the organism. Uninoculated solubility control plates were also observed for evidence of drug precipitation.
(§2) Compound K. pneumoniae A. baumannii E. coli P. aeruginosa […]
(§3) Supplementary Table 3. Minimum inhibitory concentration (MIC; µg/ml) of DNM
(§4) compounds that show potential synergy in combination with colistin. […]

[2] = system: E. coli ATCC 25922; experiment: as above; settings: compound alone, bracket after colistin value is a range (0.25-2)
Protocol: as §1, §2, §3, §4

[3] = system: K. pneumoniae MMX8390; experiment: as above; settings: compound alone
Protocol: as §1, §2, §3, §4

[4] = system: A. baumannii ATCC 19606; experiment: as above; settings: compound alone
Protocol: as §1, §2, §3, §4

[5] = system: K. pneumoniae; experiment: FIC checkerboard testing with colistin (FICI); settings: in combination with colistin
Protocol: For FIC testing, test ranges were set based on broth microdilution MIC test data. The wells of a standard 96-well microdilution plate (Costar) were filled with 150 μL of water in columns 2 through 12. A 300 μL aliquot of colistin at 40X the highest final concentration to be tested was added to each well in Column 1 of the plate. The Biomek 2000 was used to make eleven 2-fold serial dilutions in the “combination agent parental” plate from columns 2 through 11. The wells of the “test-agent parental” plate were filled with 150 μL of DMSO in rows B through H. Row A of this plate was filled with 300 μL of the DNM compound stock solution at 40X the highest final concentration to be tested. Serial 2-fold dilutions were then prepared from row B-G by hand using a multichannel pipette. The “daughter plates” were loaded with 180 μL of CAMHB using the Multidrop 384. The Biomek FX was used to transfer 5 μL of colistin from each well of the comparator parental plate to the corresponding well in all the daughter plates in a single step. Then a 5 μL aliquot from each well of the test agent parental plate was transferred by hand into the corresponding well of the daughter plate. Row H and Column 12 each contained serial dilutions of test agent and the combination agent alone, respectively, for determination of the MIC. This procedure was repeated for all test agents evaluated in combination with comparators. A standardized inoculum of each organism was prepared per CLSI methods. Colonies were picked from the primary plate and a suspension was prepared to equal a 0.5 McFarland turbidity standard. The suspensions were additionally diluted 1:20 in broth. A 10 μL standardized inoculum was delivered into each well using the Biomek 2000 from low to high concentration. These inoculations yielded a final cell concentration in the daughter plates of […]. Thus, the wells of the daughter plates ultimately contained […], 5 μL of test agent, 5 μL of the colistin, and 10 μL of inoculum. […] Plates were covered with a lid on the top plate, placed in plastic bags, and incubated at 35 °C for ~18 h. Plates were viewed from the bottom using a plate viewer. Prepared reading sheets were marked for the MIC of the combination agent, the MIC of test agent, and the wells of the growth-no growth interface for wells containing test agent and combination agent at varying ratios. […] For each relevant row of the panel, the FIC index (FICI) and mean FICI was calculated by: FICdrug A/MICdrug A + FICdrug B/MICdrug B = FIC index (FICI). The mean FICI for the combination was interpreted as follows: <0.5 = synergy, >0.5–4 = additive/indifferent, and >4 = antagonism. Microbiological measurements were performed and evaluated with Micromyx LLC (Kalamazoo, MI, USA).

[6] = system: HEK293 cells; experiment: in vitro
Protocol: (§5) Stock solutions of the test agents were prepared in DMSO (40 mg/mL) and stored at −20 °C until use. AlamarBlue HS™ cell viability reagent was acquired from Invitrogen (Cat # A50100, Carlsbad, CA). COS7 and HEK293 cells (obtained from ATCC) were cultured and tested at 37 °C in a 5% CO2/100% humidity environment in DMEM media supplemented with 10% fetal bovine serum. Cells were trypsinized, centrifuged, resuspended in cell media, counted on a hemacytometer, and diluted to an appropriate cell density to give the desired number of cells per 300 μl media. Cells were then loaded into 48-well cell culture plates (3548; Corning, Inc.); 300 μl/well at 60,000 cells per well. The cell density was determined in preliminary tests to give linear AlamarBlue HS™ readings over a 3.5 h period for HEK293 cells and 2 h period for COS7 cells after 2 days of growth; 2 wells per plate were loaded with 300 μl/well of cell-free media to provide background readings. Plates were cultured overnight, after which test agent solutions were prepared in media at the highest test concentration (100 ug/mL) and at five serial dilutions, each containing 0.25% DMSO and 0.125% Kolliphor® EL (Cat# 27963, Sigma Aldrich). The compounds concentrations were then loaded in separate columns via 300 μl/well. […] Normalized values representing the amount of AlamarBlue converted to its […] form were calculated for each well using background-corrected absorbances as described by the Alamar-Blue HS protocol information packet available from Invitrogen Technical Support. The fraction of control viability for each agent concentration with each cell line was then determined by the ratio of normalized values for the treated wells to the control wells. […] Values were determined by linear interpolation of fraction of control growth against concentration for the test agent concentrations.

[7] = system: COS7 cells; experiment: in vitro; settings: COS7 cells
Protocol: as §5

`CC(C)c1cc(Cl)ccc1-c1cc(C(N)=O)sc1-c1ccc(Cl)cc1C(C)C` [DNM0650] showed an MIC [1] greater than 64 µg/mL, an MIC [2] greater than 64 µg/mL and an MIC [3] greater than 64 µg/mL. It also gave an MIC [4] greater than 64 µg/mL.

With `Cc1cc(Cl)ccc1-c1cc(C(N)=O)sc1-c1ccc(Cl)cc1C` [DNM0652] the “Mean FICI” value ([5]; K. pneumoniae (ATCC 13883)) was 0.19, the “Mean FICI” value ([5]; K. pneumoniae (FDA-CDC AR-BANK0040)) was 0.41 and the “Mean FICI” value ([5]; K. pneumoniae (FDA-CDC AR-BANK0046)) was 0.4. The “Mean FICI” value ([5]; K. pneumoniae (FDA-CDC AR-BANK0047)) was 0.3, the “Mean FICI” value ([5]; K. pneumoniae (FDA-CDC AR-BANK0087)) was 0.38 and the “Mean FICI” value ([5]; K. pneumoniae (FDA-CDC AR-BANK0097)) was 0.34. For the same compound, the “Mean FICI” value ([5]; K. pneumoniae (FDA-CDC AR-BANK0106)) was 0.32, the “Mean FICI” value ([5]; K. pneumoniae (FDA-CDC AR-BANK0109)) was 0.35 and the “Mean FICI” value ([5]; K. pneumoniae (FDA-CDC AR-BANK0125)) was 0.32. The “Mean FICI” value ([5]; K. pneumoniae (FDA-CDC AR-BANK0364)) was 0.29, the “Mean FICI” value ([5]; K. pneumoniae (FDA-CDC AR-BANK0454)) was 0.28 and the “interpretation of mean FICI” value ([5]; each strain of the Klebsiella panel) was “Synergy”. The MIC [1] was greater than 64 µg/mL, the MIC [2] was greater than 64 µg/mL and the MIC [3] was greater than 64 µg/mL. For the same compound, the MIC [4] was greater than 64 µg/mL, the LC50 ([6]; HEK293 cells, 24 h) was 35 µg/mL (≈ 93 µM) and the “IC50 (cell viability)” value ([6]; Hek293 cells, 24 hrs) was 35.256 µg/mL (≈ 93.7 µM). The “Log IC50 (cell viability)” value ([6]; Hek293 cells, 24 hrs) was 4.547, the LC50 ([7]; 24 h) was 37 µg/mL (≈ 98.3 µM) and the “IC50 (cell viability)” value ([7]; 24 hrs) was 37.434 µg/mL (≈ 99.5 µM).

`Cc1cc(Cl)ccc1-c1cc(S(N)(=O)=O)sc1-c1ccc(Cl)cc1C` [DNM0658] was tested, and the MIC [1] was greater than 64 µg/mL, the MIC [2] was greater than 64 µg/mL and the MIC [3] was greater than 64 µg/mL. It also gave an MIC [4] greater than 64 µg/mL.

colistin [reference compound] was tested, and the MIC [1] was 0.25 µg/mL, the MIC [2] was 0.25 µg/mL and the MIC [3] was 16 µg/mL. The MIC [4] was 0.25 µg/mL.
